# Test results as given in US20060063143A1, “Immortalized hypothalamic neuronal cell lines” (priority 2002, published 2006).
# Assays:
# Format in all cases: cell-based, mouse
# N38 hypothalmic cells = assay: Microarray (Affymetrix oligonucleotide arrays) of TCAP-1 treated cells, genes regulated at 16 hours
# Description: RNAs isolated from treated and untreated cells were analyzed on oligonucleotide arrays representing 12,884 mouse genes (Affymetrix, http://www.affymetrix.com). Standard filtering (p<0.005) and hierarchical clustering algorithm (average linage method: GeneSpring software—Silicon Genetics) identified significant changes in the expression of 4, 841/12,885 genes with 166 genes showing 1.5 fold down-regulation and 35 genes up-regulation in the TCAP-1-treated cells compared to the untreated cells. […] A G-protein coupled receptor-related signal transduction pathway is indicated by the regulation of genes, CREM, AKAP8, AKAP95 and PDE6A. […] The upregulation in inducible nitric oxide (INOS), a intracellular voltage-gated chloride channel (CLCN3) and the serotonin transporter (SLC6A4) may reflect the down stream actions of cAMP-mediated signal cascade and indicates the potential for TCAP to be involved in neuronal signaling systems. A role in interneuron communication by TCAP is also indicated by the modulation of genes associated with the regulation of vesicle trafficking. Thus, the TCAP responsive cell lines can be used to screen for modulators of neuronal function that affect growth, differentiation and communication.
# The change in expression levels is indicated relative to the untreated control cell for the same time period of 16 hours. Values>1.5 fold or <0.70 fold were considered significant.
# NPY-17 (N-38) cells = assay: Calcium imaging (Fura2): intracellular calcium response to depolarization by KCl; conditions: KCl 60 mM, NPY-17 cells
# Description: FIG. 15 illustrates the neurosecretory response of NPY-17 (N 38) cells. The effect of the addition of KCl (60 mM) on intracellular calcium levels ([Ca2+]i) for the cells pictured is shown. Images of cells shown in the two panels on the right were obtained as per Example 5. Shown is a representative experiment from 6 experiments, n=116 cells in total (FIG. 15, left panel);
# Since many of the peptides and enzyme present in the individual cell lines are secretory products, one representative cell line, N-38 (Also known as NPY-17), was studied for its response to depolarization by addition of 60 mM KCl. […] NPY-17 neurons were plated in 60 mm plates. Fura-2/AM loaded GT1-7 neurons were continuously monitored by 340/380 ratiometric digital imaging pre (top right panel) and post (lower right panel) stimulation. […]
# Ca2+ imaging experiments were performed with Fura2 (Molecular Probes) using an Olympus IX70 inverted epifluorescence microscope, an Ultrapix camera with an EEV CCD37-10-1-019 chip, a monochromator, and a PC computer with Merlin imaging software (Life Science Resources) using standard Fura2 optics and imaging techniques. […] Intracellular free Ca2+ ([Ca2+]i) concentrations calculated using the Grynkiewicz equation, [Ca2+]i=Kd×□×(R−Rmin)/(Rmax−R) (52).
# NPY-17 cells = assay: Leptin responsiveness: proteomic (mass spectrometry) analysis of nuclear extracts; conditions: 10^-7 M leptin, 20 hours, NPY-17 nuclear extracts, preliminary, +/- protein status
# Description: The NPY-17 cells also express leptin receptors and have been studied for leptin responsiveness using both gene array analysis and proteomic analysis. NPY-17 cells were treated with 10^-7 M leptin (recombinant mouse, Bachem Scientific) for 20 hours. Cells were washed with PBS and harvested through centrifugation. Nuclear extracts were prepared and exposed to mass spectrometry analysis. […] The analysis is not considered quantitative, but initially represents a +/− protein status (i.e. the protein is either present or absent in the control or leptin-treated sample).
# [1] = 1 nM TCAP-1, N38 cells, 16 hours post-treatment
# [2] = 1 nM TCAP-1, N38 cells, treated vs untreated
molecule,measurement,setting,value
"TCAP-1: teneurin C-terminal-associated peptide 1, SEQ ID NO 5 plus amidation signal GRR at C-terminus (QQLLGTGRVQGYDGYFVLSVEQYLELSDSANNIHFMRQSEI; C-terminal GRR amidation signal; Mouse TCAP1)",Fold change PTK7 (Receptor protein tyrosine kinase),"N38 hypothalmic cells; 1 nM TCAP-1, 16 hours, relative to untreated control, cluster Growth/Differentiation, probe 92325",1.53 fold
same,Fold change GDAP10 (Ganglioside induced diff. protein 10),"N38 hypothalmic cells; 1 nM TCAP-1, 16 hours, relative to untreated control, cluster Growth/Differentiation, probe 94192",1.62 fold
same,Fold change MMP10 (Matrix metalloproteinase 10),"N38 hypothalmic cells; 1 nM TCAP-1, 16 hours, relative to untreated control, cluster Growth/Differentiation, probe 94724",0.59 fold
same,Fold change DLP1/2 (DAB2 interacting protein),"N38 hypothalmic cells; 1 nM TCAP-1, 16 hours, relative to untreated control, cluster Growth/Differentiation, probe 97353",0.68 fold
same,Fold change P204 (Interferon activatable protein),"N38 hypothalmic cells; 1 nM TCAP-1, 16 hours, relative to untreated control, cluster Growth/Differentiation, probe 98466",1.85 fold
same,Fold change GAS5 (Growth arrest specific transcript),"N38 hypothalmic cells; 1 nM TCAP-1, 16 hours, relative to untreated control, cluster Growth/Differentiation, probe 98530",0.46 fold
same,Fold change INI1B (Integrase interacting protein 1B),"N38 hypothalmic cells; 1 nM TCAP-1, 16 hours, relative to untreated control, cluster Growth/Differentiation, probe 99924",0.48 fold
same,Fold change MMP1 (Matrix metalloproteinase 1),"N38 hypothalmic cells; 1 nM TCAP-1, 16 hours, relative to untreated control, cluster Growth/Differentiation, probe 100484",0.55 fold
same,Fold change MOP3 (Circadian rhythm regulator),"N38 hypothalmic cells; 1 nM TCAP-1, 16 hours, relative to untreated control, cluster Growth/Differentiation, probe 102382",1.57 fold
same,Fold change CRD-BP (CRD-binding protein),"N38 hypothalmic cells; 1 nM TCAP-1, 16 hours, relative to untreated control, cluster Growth/Differentiation, probe 102627",0.59 fold
same,Fold change CD95 (Fas antigen),"N38 hypothalmic cells; 1 nM TCAP-1, 16 hours, relative to untreated control, cluster Growth/Differentiation, probe 102921",0.61 fold
same,Fold change GBP3 (Guanylate binding protein),"N38 hypothalmic cells; 1 nM TCAP-1, 16 hours, relative to untreated control, cluster Growth/Differentiation, probe 103202",0.63 fold
same,Fold change CAI1 (Casein kinase II),"N38 hypothalmic cells; 1 nM TCAP-1, 16 hours, relative to untreated control, cluster Growth/Differentiation, probe 103441",0.61 fold
same,Fold change SSG1 (Steroid sensitive gene 1),"N38 hypothalmic cells; 1 nM TCAP-1, 16 hours, relative to untreated control, cluster Growth/Differentiation, probe 160298",0.62 fold
same,Fold change SDPR (Serum deprivation response protein),"N38 hypothalmic cells; 1 nM TCAP-1, 16 hours, relative to untreated control, cluster Growth/Differentiation, probe 160373",0.57 fold
same,Fold change ST7 (Suppressor of tumourigenicity),"N38 hypothalmic cells; 1 nM TCAP-1, 16 hours, relative to untreated control, cluster Growth/Differentiation, probe 160591",1.97 fold
same,Fold change PPAN (Peter Pan homologue),"N38 hypothalmic cells; 1 nM TCAP-1, 16 hours, relative to untreated control, cluster Growth/Differentiation, probe 160802",0.62 fold
same,Fold change P202 (202 interferon activatable protein),"N38 hypothalmic cells; 1 nM TCAP-1, 16 hours, relative to untreated control, cluster Growth/Differentiation, probe 161173",0.61 fold
same,Fold change MKI67 (Cell cycle protein regulator),"N38 hypothalmic cells; 1 nM TCAP-1, 16 hours, relative to untreated control, cluster Growth/Differentiation, probe 161931",1.70 fold
same,Fold change CLM2-B (Cytohesin-2),"N38 hypothalmic cells; 1 nM TCAP-1, 16 hours, relative to untreated control, cluster Processing, probe 93492",0.63 fold
same,Fold change ARF1 (ADP ribosylation factor 1),"N38 hypothalmic cells; 1 nM TCAP-1, 16 hours, relative to untreated control, cluster Processing, probe 95156",0.63 fold
same,Fold change YIPID (Rab-mediated membrane transport),"N38 hypothalmic cells; 1 nM TCAP-1, 16 hours, relative to untreated control, cluster Processing, probe 99675",1.88 fold
same,Fold change GP25L2 (gp25L brings cargo forward from ER),"N38 hypothalmic cells; 1 nM TCAP-1, 16 hours, relative to untreated control, cluster Processing, probe 100074",1.53 fold
same,Fold change AP4S1 (Adaptor related protein complex),"N38 hypothalmic cells; 1 nM TCAP-1, 16 hours, relative to untreated control, cluster Processing, probe 104561",1.52 fold
same,Fold change RAB10 (Ras oncogene homologue),"N38 hypothalmic cells; 1 nM TCAP-1, 16 hours, relative to untreated control, cluster Processing, probe 160149",1.62 fold
same,Fold change CAMIII (Calmodulin III),"N38 hypothalmic cells; 1 nM TCAP-1, 16 hours, relative to untreated control, cluster Signalling/Communication, probe 92631",0.53 fold
same,Fold change FNBX (Ferredoxin-NADP reductase),"N38 hypothalmic cells; 1 nM TCAP-1, 16 hours, relative to untreated control, cluster Signalling/Communication, probe 92754",1.61 fold
same,Fold change ALK3 (Bone morphogenic protein receptor),"N38 hypothalmic cells; 1 nM TCAP-1, 16 hours, relative to untreated control, cluster Signalling/Communication, probe 92767",0.60 fold
same,Fold change BMP4 (Bone morphogenic protein-4),"N38 hypothalmic cells; 1 nM TCAP-1, 16 hours, relative to untreated control, cluster Signalling/Communication, probe 93456",0.52 fold
same,Fold change IL1R (Interleukin 1 receptor),"N38 hypothalmic cells; 1 nM TCAP-1, 16 hours, relative to untreated control, cluster Signalling/Communication, probe 93914",0.60 fold
same,Fold change CLCN3 (Chloride channel protein 3),"N38 hypothalmic cells; 1 nM TCAP-1, 16 hours, relative to untreated control, cluster Signalling/Communication, probe 94465",1.66 fold
same,Fold change AKAP95 (A kinase anchor protein 95),"N38 hypothalmic cells; 1 nM TCAP-1, 16 hours, relative to untreated control, cluster Signalling/Communication, probe 95001",0.60 fold
same,Fold change GR (Glucocorticoid receptor),"N38 hypothalmic cells; 1 nM TCAP-1, 16 hours, relative to untreated control, cluster Signalling/Communication, probe 98818",0.66 fold
same,Fold change CREMβ1 (cAMP-responsive element modulator),"N38 hypothalmic cells; 1 nM TCAP-1, 16 hours, relative to untreated control, cluster Signalling/Communication, probe 100533",1.61 fold
same,Fold change PDE6A (cGMP Phosphodiesterase α),"N38 hypothalmic cells; 1 nM TCAP-1, 16 hours, relative to untreated control, cluster Signalling/Communication, probe 100696",1.68 fold
same,Fold change ERK1 (Mitogen activated protein kinase),"N38 hypothalmic cells; 1 nM TCAP-1, 16 hours, relative to untreated control, cluster Signalling/Communication, probe 101834",0.64 fold
same,Fold change BARK1 (β adrenorgic receptor kinase 1),"N38 hypothalmic cells; 1 nM TCAP-1, 16 hours, relative to untreated control, cluster Signalling/Communication, probe 104270",0.61 fold
same,Fold change INOS (Inducible nitric oxide synthetase),"N38 hypothalmic cells; 1 nM TCAP-1, 16 hours, relative to untreated control, cluster Signalling/Communication, probe 104420",1.50 fold
same,Fold change PCDHγ (protocadherin γ),"N38 hypothalmic cells; 1 nM TCAP-1, 16 hours, relative to untreated control, cluster Signalling/Communication, probe 160976",0.42 fold
same,Fold change TTF-1IP (TTF-1 interacting peptide),"N38 hypothalmic cells; 1 nM TCAP-1, 16 hours, relative to untreated control, cluster Signalling/Communication, probe 161019",0.50 fold
same,Fold change AKAP8 (A kinase anchor protein 8),"N38 hypothalmic cells; 1 nM TCAP-1, 16 hours, relative to untreated control, cluster Signalling/Communication, probe 161088",1.58 fold
same,Fold change SLC6A4 (Serotonin transporter),"N38 hypothalmic cells; 1 nM TCAP-1, 16 hours, relative to untreated control, cluster Signalling/Communication, probe 161695",1.53 fold
same,AKAP8 gene expression,N38 hypothalmic cells; [1],upregulation
same,AKAP95 gene expression,N38 hypothalmic cells; [1],Downregulation
same,CD95 gene expression,N38 hypothalmic cells; [1],significant decrease
same,EFK1 gene expression,N38 hypothalmic cells; [1],down regulated
same,GAS5 gene expression,N38 hypothalmic cells; [1],significant decrease
same,GDAP10 gene expression,N38 hypothalmic cells; [1],upregulated
same,MK167 gene expression,N38 hypothalmic cells; [1],upregulated
same,MOP3 gene expression,N38 hypothalmic cells; [1],upregulated
same,RGL gene expression,N38 hypothalmic cells; [1],down regulated
same,SDPR gene expression,N38 hypothalmic cells; [1],significant decrease
same,inducible nitric oxide (INOS) gene expression,N38 hypothalmic cells; [1],upregulation
same,intracellular voltage-gated chloride channel (CLCN3) gene expression,N38 hypothalmic cells; [1],upregulation
same,serotonin transporter (SLC6A4) gene expression,N38 hypothalmic cells; [1],upregulation
same,genes showing 1.5 fold down-regulation,N38 hypothalmic cells; [2],166
same,genes showing up-regulation,N38 hypothalmic cells; [2],35
[Cl-].[K+] [KCl],calcium mobilization,NPY-17 (N-38) cells,significant increase
same,[Ca2+]i peak value,NPY-17 (N-38) cells; representative graph,~450 nM
"leptin: leptin (recombinant mouse, Bachem Scientific) (protein, UniProt P41160 22-167, looked up) Leptin: VPIQKVQDDTKTLIKTIVTRINDISHTQSVSAKQRVTGLDFIPGLHPILSLSKMDQTLAVYQQVLTSLPSQNVLQIANDLENLRDLLHLLAFSKSCSLPQTSGLQKPESLDGVLEASLYSTEVVALSRLQGSLQDILQQLDVSPEC",proteins altered by leptin treatment,NPY-17 cells,approximately 250
